System: Staphylococcus aureus
Assay: Agar-well method: growth inhibition of the indicator strain
Format: cell-based
Conditions: 130 μl in agar well, read-out: Radius of inhibition zone
Experimental: A parent strain, streptomyces filamentosus ATCC 31568 was cultured by slant culture at 30° C. for 12 days to collect spores, and then the spores were suspended in a physiological saline, followed by serial dilution of 10^−2, 10^−3, and 10^−4, and plating on plate media. After pre-incubation at 30° C. for 2 hours, the plates were irradiated for 118 seconds in a glove box placed at a distance of 65 cm from two 20 W UV bulbs of 280 nm wavelength. In this regard, the death rate was 99.9%. […] Colonies that survived on the agar plates at 30° C. for 6 days were collected, followed by seed culture and fermentation culture according to a method of the following Example 4. Fermentation was performed using a 500 ml-baffled flask in a shaking incubator under conditions of 30° C., 260 rpm for 7 days.
After completion of the culture, the culture broth was centrifuged. An agar-well method which is a biological detection method was used in order to examine growth inhibition of an indicator strain, Staphylococcus aureus. The agar-well method was applied to the analysis, because this method is an easy and simple method with lower errors, compared to other methods. This method is based on a principle that a diffusion rate is determined by a difference in a concentration gradient upon diffusion of a sample on an agar gel, and the radius of inhibition zone for a predetermined time is known to be proportional to the log of the concentration value. Based on this principle, antibiotic concentrations in unknown samples can be measured. This method was performed by the following procedure: before a trypticase soy broth agar medium solidified, the indicator strain Staphylococcus aureus was added thereto and uniformly suspended therein. The medium was poured into a […] and allowed to solidify. Next, wells were punched into the agar using a stainless steel borer having a diameter of 5 mm, and agar in the well was suctioned by vacuum aspiration. The amount of the sample in the agar well was 130 μl, and a control group daptomycin was prepared and used in an amount of 0, 50, 100, 200, 300, and 1000 μg/ml.

`CCCCCCCCCC(=O)N[C@@H](Cc1c[nH]c2ccccc12)C(=O)N[C@H](CC(N)=O)C(=O)N[C@@H](CC(=O)O)C(=O)N[C@@H]1C(=O)NCC(=O)N[C@@H](CCCN)C(=O)N[C@@H](CC(=O)O)C(=O)N[C@H](C)C(=O)N[C@@H](CC(=O)O)C(=O)NCC(=O)N[C@H](CO)C(=O)N[C@@H]([C@H](C)CC(=O)O)C(=O)N[C@@H](CC(=O)c2ccccc2N)C(=O)O[C@@H]1C` [Daptomycin, daptomycin] gave a zone of inhibition at 50 µg/mL (Daptomycin control 0.05 mg/ml) of 8.6 mm, a zone of inhibition at 100 µg/mL (Daptomycin control 0.10 mg/ml) of 10.6 mm and a zone of inhibition at 200 µg/mL (Daptomycin control 0.20 mg/ml) of 12 mm. The zone of inhibition at 300 µg/mL (Daptomycin control 0.30 mg/ml) was 13.2 mm and the zone of inhibition at 1000 µg/mL (Daptomycin control 1.00 mg/ml) was 16 mm.

— patent US10301690B2, “Streptomyces filamentosus variant and method for producing daptomycin using same” (priority 2013, dated 2019)
